{"source": "paper PMC8458281", "about": "“Computational modeling and experimental validation of the EPI-X4/CXCR4 complex allows rational design of small peptide antagonists” (Communications Biology, 2021)", "test_system": "zebrafish embryos", "assay": "Toxicity assay in zebrafish embryos", "type": "in vivo", "settings": "embryos exposed 24 h from 24 hpf to 3, 30 and 300 µM in E3; scored at 48 hpf for cytotoxicity, developmental toxicity, cardiotoxicity, neurotoxicity; two independent assays, 10 × 3 embryos each", "experimental": "Finally, we evaluated the toxicity of EPI-X4 JM#21 408–414-NH2 in zebrafish embryos, a widely used in vivo model for toxicity studies. We exposed embryos for 24 h starting at 24 h post fertilization (hpf), when most organ systems have already developed and are functional. Transparency of the embryos allows for evaluation by light microscopy not only of mortality, but also of sublethal cytotoxicity (necrosis, lysis), developmental toxicity (developmental delay, malformations), or toxicity affecting specific organ systems, in particular cardiotoxicity (heart edema, reduced circulation), and neurotoxicity (reduced touch escape response).\nWild-type zebrafish embryos were dechorionated at 24 hpf using digestion with 1 mg/ml pronase (Sigma) in E3 medium ([…]). […] At 48 hpf (after 24 h of incubation) embryos were scored in a stereomicroscope for signs of cytotoxicity (lysis and/or necrosis), developmental toxicity (delay and/or malformations), or cardiotoxicity (heart edema and/or reduced or absent circulation). Each embryo was also touched with a needle, and reduced or absent touch responses (escape movements) were evaluated as signs of neurotoxicity if and only if no signs of cytotoxicity were present in the same embryo. […]\nT2: severe damage so that other phenotypes cannot be assessed (L3, L4, Nec2)", "note": "No end group written: not given here."}
{"substance": "ILRWSRK-NH2 [JM#21 408–414-NH2]", "values": [{"measurement": "toxicity in zebrafish embryos", "result": "nontoxic even at high concentrations"}]}
